Data taken from patent US20180244611A1, “Modulators of the Cystic Fibrosis Transmembrane Conductance Regulator Protein and Methods of Use” (AbbVie S.à.r.l., priority 2017, published 2018).

Key:
F508delCFTR [1] = target: T1, F508delCFTR (Homo sapiens, UniProt P13569, DEL508-508); test: Cell Surface Expression-Horse Radish Peroxidase (CSE-HRP) assay, test compound with co-corrector; assay type: cell-based; settings: for Maximum % activity (with co-corrector): maximum at any tested concentration;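 as to Maximum % activity (with co-corrector): percent of 2 µM positive control corrector over DMSO; co-corrector is that same compound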
T1 construct: expressed in transfected cells; host or cells: CFBE41o- human lung-derived epithelial cells (CFBE41o-F508delCFTR-HRP), doxycycline-inducible
Procedure, shortened: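 Surface-expression read-out: luminol luminescence from an HRP tag in the fourth exofacial loop of F508delCFTR, in doxycycline-induced (0.5 μg/mL, 72 h) CFBE41o- cells. Compound plus 2 μM co-corrector added for 18-24 h at 33° C., 8-point 3-fold series up to 20 μM. EC50 from a sigmoidal fit with variable Hill slope, normalised to positive control, triplicate plates.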

F508delCFTR [2] = target: T1, F508delCFTR; test: Cell Surface Expression-Horse Radish Peroxidase (CSE-HRP) assay, test compound without co-corrector; assay type: cell-based; settings: for Emax: maximum at any tested concentration, without co-corrector; for EC50: test compound without co-corrector;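 as to Emax: percent of on-plate 2 µM positive control corrector response over DMSO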
Procedure, shortened: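 Compound without co-corrector was tested at eight 3-fold concentrations, top 20 μM, for 18-24 h at 33° C on doxycycline-induced (0.5 μg/mL, 72 h) CFBE41o- F508delCFTR-HRP cells. After DPBS washes, luminol luminescence gave % activity relative to on-plate positive control minus DMSO; EC50 came from triplicate-plate sigmoidal fitting.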

[3] = normalized to positive control, with 2 μM co-corrector
[4] = CSE-HRP assay, test compound with 2 μM co-corrector
[5] = normalized to on-plate positive control, with 2 μM co-corrector
[6] = normalized to on-plate positive control

T1 sequence (P13569 with tags, fused parts or gaps DEL508-508): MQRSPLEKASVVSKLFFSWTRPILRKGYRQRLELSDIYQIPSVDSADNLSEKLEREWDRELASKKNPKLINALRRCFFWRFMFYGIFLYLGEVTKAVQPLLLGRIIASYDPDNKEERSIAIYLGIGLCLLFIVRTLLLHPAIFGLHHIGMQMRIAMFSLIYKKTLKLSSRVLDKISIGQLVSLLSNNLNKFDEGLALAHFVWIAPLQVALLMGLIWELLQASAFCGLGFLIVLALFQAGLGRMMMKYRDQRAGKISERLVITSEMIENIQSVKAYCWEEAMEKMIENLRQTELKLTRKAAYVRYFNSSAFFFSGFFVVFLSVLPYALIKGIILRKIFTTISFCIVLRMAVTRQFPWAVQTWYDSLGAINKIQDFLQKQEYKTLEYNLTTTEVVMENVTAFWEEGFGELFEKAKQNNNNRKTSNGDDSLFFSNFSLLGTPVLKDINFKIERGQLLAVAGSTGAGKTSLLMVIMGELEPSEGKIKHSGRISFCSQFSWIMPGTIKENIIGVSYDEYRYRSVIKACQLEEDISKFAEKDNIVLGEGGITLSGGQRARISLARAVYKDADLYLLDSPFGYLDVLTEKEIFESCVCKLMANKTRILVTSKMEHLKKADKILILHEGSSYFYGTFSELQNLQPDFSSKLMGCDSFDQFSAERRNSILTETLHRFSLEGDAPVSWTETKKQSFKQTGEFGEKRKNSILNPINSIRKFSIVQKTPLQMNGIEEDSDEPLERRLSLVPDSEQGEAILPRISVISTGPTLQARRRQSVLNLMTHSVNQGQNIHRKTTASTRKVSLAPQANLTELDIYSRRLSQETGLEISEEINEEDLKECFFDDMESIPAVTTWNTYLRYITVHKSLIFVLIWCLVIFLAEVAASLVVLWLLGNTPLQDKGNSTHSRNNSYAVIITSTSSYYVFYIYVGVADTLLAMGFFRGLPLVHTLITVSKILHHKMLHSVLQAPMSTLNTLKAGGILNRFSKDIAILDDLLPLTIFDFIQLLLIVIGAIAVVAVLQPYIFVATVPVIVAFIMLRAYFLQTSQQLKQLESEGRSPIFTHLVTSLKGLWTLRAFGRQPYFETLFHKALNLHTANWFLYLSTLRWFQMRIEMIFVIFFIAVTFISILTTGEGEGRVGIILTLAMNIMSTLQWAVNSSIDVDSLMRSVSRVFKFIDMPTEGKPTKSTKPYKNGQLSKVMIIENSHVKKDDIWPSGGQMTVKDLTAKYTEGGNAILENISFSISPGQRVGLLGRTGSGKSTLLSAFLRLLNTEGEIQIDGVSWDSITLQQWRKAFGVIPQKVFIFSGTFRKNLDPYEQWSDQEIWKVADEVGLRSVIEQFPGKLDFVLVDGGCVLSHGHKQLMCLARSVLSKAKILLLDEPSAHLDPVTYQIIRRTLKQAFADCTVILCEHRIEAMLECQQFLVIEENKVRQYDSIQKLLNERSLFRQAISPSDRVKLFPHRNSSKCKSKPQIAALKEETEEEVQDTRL

Maximum % activity (with co-corrector) (F508delCFTR [1]; [3])	EC50 (F508delCFTR [1]; with 2 μM co-corrector)	Emax (F508delCFTR [2]; normalized to positive control)	EC50 (F508delCFTR [2])	EC50 (F508delCFTR [1]; [4])	Maximum % activity (with co-corrector) (F508delCFTR [1]; [5])	EC50 (F508delCFTR [2]; CSE-HRP assay)	Emax (F508delCFTR [2]; [6])	SMILES
+ (<150)	≥ 10 µM	< 50%	≥ 10 µM	–	–	–	–	CCN1CCC[C@H]1CNC(=O)c1cc(S(=O)(=O)NC(=O)C2CCc3c(OC)cccc32)ccc1OC (some centres unmarked) [III-52]
++ (≥150 and <350)	3 to 10 µM	< 50%	3 to 10 µM	–	–	–	–	COc1cccc2c1CCC2C(=O)NS(=O)(=O)c1ccc(C)cc1 (centres unmarked) [III-23]
+++ (≥350)	3 to 10 µM	50 to 150%	3 to 10 µM	–	–	–	–	COc1ccc(C2CCC2)c2c1[C@@H](C(=O)NS(=O)(=O)c1cccc3ccccc13)CC2 [Example I-80, (1S)-4-cyclobutyl-7-methoxy-N-(naphthalene-1-sulfonyl)-2,3-dihydro-1H-indene-1-carboxamide]
+++ (≥350)	< 3 µM	50 to 150%	< 3 µM	–	–	–	–	CCC1(C(=O)NS(=O)(=O)c2cccc3sccc23)CCc2c(Cl)cccc21 (centres unmarked) [Example I-43, N-(1-benzothiophene-4-sulfonyl)-4-chloro-1-ethyl-2,3-dihydro-1H-indene-1-carboxamide]
–	–	–	–	3 to 10 µM	++ (≥150 and <350)	3 to 10 µM	< 50%	COc1ccc(CO)c2c1C(C(=O)NS(=O)(=O)c1cccc3ccccc13)CC2 (centres unmarked) [III-185]
+++ (≥350)	3 to 10 µM	≥ 150%	3 to 10 µM	–	–	–	–	COc1ccc(C2CCC2)c2c1[C@@H](C(=O)NS(=O)(=O)c1cccc3c1CCCN3)CC2 [Example I-122, (1S)-4-cyclobutyl-7-methoxy-N-(1,2,3,4-tetrahydroquinoline-5-sulfonyl)-2,3-dihydro-1H-indene-1-carboxamide]
–	–	–	–	3 to 10 µM	++ (≥150 and <350)	≥ 10 µM	< 50%	CCC1(C(=O)NS(=O)(=O)c2ccc3c(c2)OCCO3)CCc2c(Cl)cccc21 (centres unmarked) [III-123]
+ (<150)	≥ 10 µM	< 50%	≥ 10 µM	–	–	–	–	COc1cccc2c1CCC2C(=O)NS(=O)(=O)c1ccc(NC(C)=O)cc1C (centres unmarked) [III-31]
++ (≥150 and <350)	< 3 µM	< 50%	< 3 µM	–	–	–	–	CCC1(C(=O)NS(=O)(=O)c2ccccc2-c2ccccc2)CCc2c(Cl)cccc21 (centres unmarked) [II-64]
++ (≥150 and <350)	3 to 10 µM	< 50%	≥ 10 µM	–	–	–	–	COc1cccc2c1CCC2C(=O)NS(=O)(=O)c1cccc(Cl)c1 (centres unmarked) [III-35]
+++ (≥350)	3 to 10 µM	≥ 150%	3 to 10 µM	–	–	–	–	COc1ccc(OC)c2c1CC[C@H]2C(=O)NS(=O)(=O)c1cccc2ccccc12 [Example I-90, (1R)-4,7-dimethoxy-N-(naphthalene-1-sulfonyl)-2,3-dihydro-1H-indene-1-carboxamide]
+++ (≥350)	3 to 10 µM	≥ 150%	3 to 10 µM	–	–	–	–	COc1cccc2c1C(C(=O)NS(=O)(=O)c1cccc3ccccc13)C2 (centres unmarked) [II-114]
+ (<150)	≥ 10 µM	< 50%	≥ 10 µM	–	–	–	–	CCC1(C(=O)NS(=O)(=O)c2cccc3nsnc23)CCc2c(Cl)cccc21 (centres unmarked) [II-67]
+++ (≥350)	3 to 10 µM	≥ 150%	3 to 10 µM	–	–	–	–	C[C@@]1(C(=O)NS(=O)(=O)c2cccc3ccccc23)CCc2c1ccc1c2OCO1 [Example I-21, (6R)-6-methyl-N-(naphthalene-1-sulfonyl)-7,8-dihydro-2H,6H-indeno[4,5-d][1,3]dioxole-6-carboxamide]
++ (≥150 and <350)	3 to 10 µM	50 to 150%	3 to 10 µM	–	–	–	–	CCc1ccccc1S(=O)(=O)NC(=O)C1CCc2c(Cl)cccc21 (centres unmarked) [II-25]
+ (<150)	< 3 µM	< 50%	≥ 10 µM	–	–	–	–	CCC1(C(=O)NS(=O)(=O)c2cccc(F)c2F)CCc2c(Cl)cccc21 (centres unmarked) [II-103]
+++ (≥350)	< 3 µM	50 to 150%	3 to 10 µM	–	–	–	–	CCC1(C(=O)NS(=O)(=O)c2cn(C)c3ccccc23)CCc2c(Cl)cccc21 (centres unmarked) [II-108]
+ (<150)	≥ 10 µM	< 50%	≥ 10 µM	–	–	–	–	COCCS(=O)(=O)NC(=O)C1CCc2c(OC)cccc21 (centres unmarked) [III-16]
+++ (≥350)	< 3 µM	≥ 150%	3 to 10 µM	–	–	–	–	COc1cccc2c1[C@H](C(=O)NS(=O)(=O)c1cccc3ncccc13)CC2(C)C [Example I-154, (1R)-7-methoxy-3,3-dimethyl-N-(quinoline-5-sulfonyl)-2,3-dihydro-1H-indene-1-carboxamide]
–	–	–	–	3 to 10 µM	++ (≥150 and <350)	≥ 10 µM	< 50%	COc1ccc(Br)c2c1C(C(=O)NS(=O)(=O)c1cccn3cnnc13)CC2 (centres unmarked) [III-163]
+ (<150)	≥ 10 µM	< 50%	≥ 10 µM	–	–	–	–	Cc1ccccc1S(=O)(=O)NC(=O)C1CCc2ccccc2C1 (centres unmarked) [III-10]
–	–	–	–	≥ 10 µM	+ (<150)	≥ 10 µM	< 50%	Cc1ccccc1S(=O)(=O)NC(=O)C1CCc2c(-c3ccnn3C)cccc21 (centres unmarked) [III-106]
+ (<150)	≥ 10 µM	< 50%	≥ 10 µM	–	–	–	–	CCC1(C(=O)NS(=O)(=O)c2cc(C)ccc2C)CCc2c(Cl)cccc21 (centres unmarked) [II-62]
–	–	–	–	3 to 10 µM	++ (≥150 and <350)	3 to 10 µM	< 50%	CCC1(C(=O)NS(=O)(=O)c2cc[nH]n2)CCc2c(Cl)cccc21 (centres unmarked) [III-145]
+++ (≥350)	< 3 µM	≥ 150%	3 to 10 µM	–	–	–	–	COc1ncc(Br)c2c1C(C(=O)NS(=O)(=O)c1cccc3ccccc13)CCC2 (centres unmarked) [Example I-113, 4-bromo-1-methoxy-N-(naphthalene-1-sulfonyl)-5,6,7,8-tetrahydroisoquinoline-8-carboxamide]
+++ (≥350)	< 3 µM	≥ 150%	< 3 µM	–	–	–	–	COc1ncc(C2CCC2)c2c1[C@H](C(=O)NS(=O)(=O)c1cccc3ccccc13)CCC2 [Example I-120, (8R)-4-cyclobutyl-1-methoxy-N-(naphthalene-1-sulfonyl)-5,6,7,8-tetrahydroisoquinoline-8-carboxamide]
++ (≥150 and <350)	3 to 10 µM	50 to 150%	3 to 10 µM	–	–	–	–	COc1cc(-c2cccc3c2CCC3C(=O)NS(=O)(=O)c2ccccc2C)ccn1 (centres unmarked) [II-42]
+ (<150)	≥ 10 µM	< 50%	≥ 10 µM	–	–	–	–	COc1cccc2c1CCC2C(=O)NS(=O)(=O)Cc1ccccc1 (centres unmarked) [III-21]
+++ (≥350)	< 3 µM	50 to 150%	< 3 µM	–	–	–	–	O=C(NS(=O)(=O)c1cccc2ccccc12)C1(CCN2CCC(F)(F)C2)CCc2c(Cl)cccc21 (centres unmarked) [Example I-16, 4-chloro-1-[2-(3,3-difluoropyrrolidin-1-yl)ethyl]-N-(naphthalene-1-sulfonyl)-2,3-dihydro-1H-indene-1-carboxamide]
